Data published in PubChem BioAssay AID1996.
Values after ≈ are worked out from the molar mass of the structure shown.

Conditions: buffer; pH 7.4; 200.0 µM
`NS(=O)(=O)c1ccc(CNC(=O)/C=C/c2cccc([N+](=O)[O-])c2)cc1` gave a solubility kinetic of 14.2 µg/mL (≈ 39.3 µM). With `Cc1cc(C)n2nc(SCC(=O)N3CC(C)CC(C)C3)nc2n1` (centres undefined) the solubility kinetic was > 50 µg/mL. In the case of `CC(=O)Nc1ccc(NC(=O)COC(=O)Cn2cnc3ccccc32)cc1`, the solubility kinetic is reported as > 55 µg/mL. In the case of `CCOC(=O)C1(CC2CC2)CCN(C(=O)c2ocnc2C)CC1`, the solubility kinetic is reported as > 48.1 µg/mL. With `CCn1cc([N+](=O)[O-])c(C(=O)N2CCCc3ccccc32)n1` the solubility kinetic was > 45 µg/mL. In the case of `CC1(C(=O)OCC(=O)Nc2ccc(Cl)cn2)CC1(Cl)Cl` (centres undefined), the solubility kinetic is reported as > 50.6 µg/mL. `CC(C)COC(=O)n1c(SCC(N)=O)nc2ccccc21` gave a solubility kinetic of 16.3 µg/mL (≈ 53 µM). With `CN(C)c1nc(/C=C(\C#N)C(N)=O)c(Cl)n1-c1ccc(F)cc1` the solubility kinetic was 8.3 µg/mL (≈ 24.9 µM). For `O=C1ON=C(c2cccc([N+](=O)[O-])c2)/C1=C/c1ccc(O)cc1`, the solubility kinetic was > 46.5 µg/mL. `Cc1ccccc1NC(=O)/C(C#N)=C/c1ccc[nH]1` gave a solubility kinetic of 2.9 µg/mL (≈ 11.5 µM). In the case of `COc1cccc(-c2cc(C(=O)NCc3cccs3)no2)c1`, the solubility kinetic is reported as < 0.3 µg/mL. `CN1CC(=O)N2[C@H](c3ccc4c(c3)OCO4)c3[nH]c4ccccc4c3C[C@@H]2C1=O` gave a solubility kinetic of 3.2 µg/mL (≈ 8.22 µM). For `CC(=O)N/N=C(\C)c1cccc(C(F)(F)F)c1`, the solubility kinetic was > 36.6 µg/mL. With `CCN(Cc1ccccc1)C(=O)COC(=O)c1cc(Cl)nc(Cl)c1` the solubility kinetic was > 55.1 µg/mL. For `Cc1cc(N/C=C(\C#N)S(=O)(=O)c2ccccc2Cl)nc(C)n1`, the solubility kinetic was 39.5 µg/mL (≈ 113 µM). Compound `CCc1ccc(N2CCN(CCNC(=O)Nc3ccccc3)CC2)cc1` has a solubility kinetic of 1.3 µg/mL (≈ 3.69 µM). With `COc1ccc(N(C(=O)C(C)C)S(=O)(=O)c2ccc3ccccc3c2)cc1` the solubility kinetic was < 0.8 µg/mL. `COc1ccccc1C1CC(=O)NC(C)=C1C(=O)OC(C)C` (centres undefined) gave a solubility kinetic of 28.4 µg/mL (≈ 93.6 µM). For `Cc1ccc(S(=O)(=O)N2CCCCC2)cc1`, the solubility kinetic was 20 µg/mL (≈ 83.6 µM). With `NC(=O)CC(CC(=O)OCc1ccccc1)c1ccccc1` (centres undefined) the solubility kinetic was 38 µg/mL (≈ 128 µM). Compound `COC(=O)c1sccc1NC(=O)Nc1ccccc1C` has a solubility kinetic of 23.6 µg/mL (≈ 81.3 µM). `COc1ccc(OC)c(S(=O)(=O)N2CCc3ccccc3C2)c1` showed a solubility kinetic of 22.1 µg/mL (≈ 66.3 µM). In the case of `CC1CCc2ccccc2N1C(N)=Nc1ccccc1.Cl` (centres undefined), the solubility kinetic is reported as > 45.3 µg/mL. With `CC(OC(=O)c1cc[n+]([O-])cc1)C(=O)NCc1ccccc1` (centres undefined) the solubility kinetic was > 45 µg/mL. Compound `Cc1cc(=O)oc2cc(NS(=O)(=O)c3ccccc3)ccc12` has a solubility kinetic of 10.5 µg/mL (≈ 33.3 µM). Work on `CCCCN(C(=O)c1cccs1)c1c(N)n(Cc2ccccc2)c(=O)[nH]c1=O` yielded a solubility kinetic of 6.1 µg/mL (≈ 15.3 µM). With `CCOc1ccc(NC(=O)CN2C(=O)CSC2=O)cc1` the solubility kinetic was > 44.1 µg/mL. With `CCOCc1c(C(=O)NCC(c2ccco2)N2CCCC2)oc2ccccc12` (centres undefined) the solubility kinetic was 56.2 µg/mL (≈ 147 µM). In the case of `COc1ccc(CNC/C=C/c2ccccc2)cc1.Cl`, the solubility kinetic is reported as > 43.5 µg/mL. In the case of `CC(Sc1nncn1C)C(=O)Nc1ccc(N2CCCCC2)cc1` (centres undefined), the solubility kinetic is reported as > 51.8 µg/mL. For `O=C(/C=C/c1ccc(F)cc1)OCC(=O)c1ccc[nH]1`, the solubility kinetic was 2.6 µg/mL (≈ 9.51 µM). For `CCC(CC)C(=O)c1c[nH]c(C(=O)NCc2ccccn2)c1`, the solubility kinetic was > 44.9 µg/mL. For `Fc1ccc(Nc2ncnc3sccc23)cc1`, the solubility kinetic was 32.8 µg/mL (≈ 134 µM). In the case of `O=C(CCCn1cc([N+](=O)[O-])cn1)N1CCCCC1`, the solubility kinetic is reported as > 39.9 µg/mL. Compound `Cc1cc(C)cc(NC(=O)N2CCC(NC(=O)c3ccco3)CC2)c1` has a solubility kinetic of 44.4 µg/mL (≈ 130 µM). With `COc1ccc2[nH]c(=O)c(CNc3ccccc3C)cc2c1` the solubility kinetic was 27.6 µg/mL (≈ 93.8 µM). Work on `O=c1[nH]c2ccc(NCc3ccc(F)cc3)cc2[nH]1` yielded a solubility kinetic of 35.9 µg/mL (≈ 140 µM). With `CCOC(=O)c1c(NC(=O)CN2CCCCC2)sc(C)c1C` the solubility kinetic was < 0.3 µg/mL. In the case of `CCC(=O)Nc1ccc2c(c1)ncn2-c1ccccc1C`, the solubility kinetic is reported as > 41.9 µg/mL. In the case of `COc1ccc(NC(=S)NC2CC3CCCC(C2)N3C2CC2)cc1` (centres undefined), the solubility kinetic is reported as > 51.8 µg/mL. In the case of `c1ccc(Cc2nc3ccccc3[nH]2)cc1`, the solubility kinetic is reported as > 31.2 µg/mL. In the case of `COc1ccc(C(C)NC(=O)C23CC4CC(CC(C4)C2)C3)cc1` (centres undefined), the solubility kinetic is reported as 0.8 µg/mL (≈ 2.55 µM). With `CC(=O)N[C@@H](CS)C(=O)O` the solubility kinetic was > 24.5 µg/mL. In the case of `CC(C)NC(=S)NCc1cccs1`, the solubility kinetic is reported as > 32.2 µg/mL. `Cc1ccc(Nc2c(-c3ccccc3O)nc3ncccn23)cc1` showed a solubility kinetic of 0.7 µg/mL (≈ 2.21 µM). For `COc1cc(OC)cc(C(=O)Nc2cccc3nc(C)ccc23)c1`, the solubility kinetic was 2.9 µg/mL (≈ 9 µM). In the case of `CC(=O)Nc1c2c(nn1-c1ccc(C)cc1)CS(=O)(=O)C2`, the solubility kinetic is reported as > 45.8 µg/mL. With `O=c1c2ccccc2nc(/C=C/c2cc(Br)ccc2O)n1CCO` the solubility kinetic was 6.1 µg/mL (≈ 15.8 µM). Compound `Cc1ccc(NC(=O)COC(=O)Cn2cnc3ccccc32)c(C)c1` has a solubility kinetic of 42.4 µg/mL (≈ 126 µM). Work on `Cc1nc(-c2ccc(C#N)cc2)cs1` yielded a solubility kinetic of 13.5 µg/mL (≈ 67.4 µM). For `C=CCN=C1S/C(=C\c2ccc(N(C)C)cc2)C(=O)N1CC=C`, the solubility kinetic was 5.5 µg/mL (≈ 16.8 µM). Work on `COc1ccc(CCNC(=O)CSCC(=O)Nc2cc(S(C)(=O)=O)ccc2Cl)cc1` yielded a solubility kinetic of 18.6 µg/mL (≈ 39.5 µM). Compound `O=C(CN1C(=O)CCS(=O)(=O)c2ccccc21)NCCc1ccccc1` has a solubility kinetic of 55.3 µg/mL (≈ 148 µM). `N#Cc1c(-c2ccccc2)nc(-c2cccnc2)[nH]c1=O` showed a solubility kinetic of 40.2 µg/mL (≈ 147 µM). In the case of `Cc1nnc(SCC(=O)N2CCCC2)n(N)c1=O`, the solubility kinetic is reported as > 40.4 µg/mL. With `Cc1ccc(N(CC(=O)NC2CC2)S(=O)(=O)c2ccccc2)c(C)c1` the solubility kinetic was > 53.8 µg/mL. In the case of `CN1C(=O)[C@H](Cc2ccc([N+](=O)[O-])cc2)NC1=S`, the solubility kinetic is reported as 28.1 µg/mL (≈ 106 µM). In the case of `Cc1cc(C(=O)N2CCC(Cc3ccccc3)CC2)c(C)o1`, the solubility kinetic is reported as 41.6 µg/mL (≈ 140 µM). For `CC(=O)N1CCN(S(=O)(=O)c2ccc(F)c(Cl)c2)CC1`, the solubility kinetic was > 48.1 µg/mL.
